Measured values from patent US20170037480A1, “HSF1 IN TUMOR STROMA” (Whitehead Institute for Biomedical Research, priority 2014, published 2017).
Entries after “also recorded” stand apart in the source; their conditions may differ.

Assays:
D2A1 cancer cells = assay: Growth of D2A1 cancer cells grown alone (no MEFs), Cell-Titer Glo luminescence; format: cell-based, mouse; settings: LY2109761 1 μM, 72 h, daily re-addition of inhibitor
Procedure: Figs. S4A-S4F show additional results. (A) Tgfβ and Sdf1 mRNA levels are regulated by HSF1 in primary MEFs. The relative expression of Sdf1, Tgfβ1 and Tgfβ2 in three separate sets of WT or Hsf1 null MEFs (each derived from a different pregnancy) was measured by quantitative PCR. mRNA expression levels were normalized to the house keeping gene Gapdh. The experiment was repeated 3 times (each time with a different set of primary MEFs), in triplicate. Representative results are shown as the mean+/−SEM. *p<0.05, **p<0.01, ***p<0.001. […] WT or Hsf1 null immortalized MEFs were plated and treated with mitomycin C. D2A1 cells marked with dsRed were then seeded on top of the MEFs in the presence or absence of 10 ng/ml TGFβ1, 100 ng/ml SDF1 or a combination of both. After 96 h, cells were trypsinized and quantitated by flow cytometry. The percentage of cancer cells in the co-culture is presented. The experiment was repeated 3 times, in triplicate. […] Relative cell number was measured by luminescence using Cell-Titer Glo reagent (Promega). […] After growth for 96 h, cells were trypsinized and quantitated by flow cytometry. […] Relative levels of SMAD2 in WT immortalized MEFs (left two panels) or D2A1 cells (right two panels) were measured by immunoblotting lysates prepared from cells stably expressing shRNA hairpins targeting Smad2 (shSmad2) or GFP (shGFP). […]

[1] = system: D2A1 cells co-cultured with WT MEFs; assay: Co-culture of dsRed D2A1 cancer cells on WT MEF feeder layer, cancer cells counted by flow cytometry; format: cell-based, mouse; settings: LY2109761, MEFs pretreated 30 minutes, 72 h, daily supplementation; p=0.008
Procedure: (A) The relative expression of Sdf1, Tgfβ1 and Tgfβ2 in WT or Hsf1 null immortalized MEFs was measured by quantitative PCR. mRNA expression levels were normalized to the house keeping gene Gapdh. The mean of 3 independent experiments is shown. Error bars, SEM. *p<0.05, **p<0.01. (B-C) WT or Hsf1 null immortalized MEFs were plated and treated with mitomycin C as in FIG. 3A. D2A1 cells marked with dsRed were then seeded on top of the MEFs in the presence or absence of 10 ng/ml TGFβ1 and 100 ng/ml SDF1. After 96 h, cells were either visualized by fluorescent microscopy (B) or trypsinized and quantitated by flow cytometry (C). The percentage of cancer cells in co-culture is presented. The experiment was repeated 3 times, in triplicate. Representative results of one experiment are shown as the mean+/−SEM. *p<0.05. […] Cultures were continued for 72 h, with daily supplementation of LY2109761 (or not, as control), and then analyzed as in (C). […] Results are expressed as the mean relative number of cancer cells, normalized to the non-drug treated co-cultures with WT MEFs. […] (E) Immortalized WT MEFs stably expressing shRNA hairpins targeting Smad2 (shSmad2) or GFP (shGFP) were co-cultured with D2A1 cells, treated and analyzed as in (C). […] IPs were analyzed by qPCR with primers targeting potential heat shock elements in mouse Sdf1 and Tgfβ2. […]

[2] = system: D2A1 cells co-cultured with Hsf1 null MEFs; assay: Co-culture of dsRed D2A1 cancer cells on Hsf1 null MEF feeder layer, cancer cells counted by flow cytometry; format: cell-based, mouse; settings: for cancer cell growth (percentage of cancer cells) in co-culture with Hsf1 null MEFs on addition of recombinant proteins: 10 ng/ml TGFβ1, 100 ng/ml SDF1, added once, 96 h
Procedure: (A) The relative expression of Sdf1, Tgfβ1 and Tgfβ2 in WT or Hsf1 null immortalized MEFs was measured by quantitative PCR. mRNA expression levels were normalized to the house keeping gene Gapdh. The mean of 3 independent experiments is shown. Error bars, SEM. *p<0.05, **p<0.01. (B-C) WT or Hsf1 null immortalized MEFs were plated and treated with mitomycin C as in FIG. 3A. D2A1 cells marked with dsRed were then seeded on top of the MEFs in the presence or absence of 10 ng/ml TGFβ1 and 100 ng/ml SDF1. After 96 h, cells were either visualized by fluorescent microscopy (B) or trypsinized and quantitated by flow cytometry (C). The percentage of cancer cells in co-culture is presented. The experiment was repeated 3 times, in triplicate. Representative results of one experiment are shown as the mean+/−SEM. *p<0.05. (D) Immortalized WT or Hsf1 null mitomycin-treated MEFs were pretreated, or not, with LY2109761 for 30 minutes before D2A1 cells marked with dsRed were seeded on top. Cultures were continued for 72 h, with daily supplementation of LY2109761 (or not, as control), and then analyzed as in (C). The experiment was repeated 3 times, in triplicates. Results are expressed as the mean relative number of cancer cells, normalized to the non-drug treated co-cultures with WT MEFs. […] (E) Immortalized WT MEFs stably expressing shRNA hairpins targeting Smad2 (shSmad2) or GFP (shGFP) were co-cultured with D2A1 cells, treated and analyzed as in (C). […] IPs were analyzed by qPCR with primers targeting potential heat shock elements in mouse Sdf1 and Tgfβ2. […]
Figs. S4A-S4F show additional results. […] The relative expression of Sdf1, Tgfβ1 and Tgfβ2 in three separate sets of WT or Hsf1 null MEFs (each derived from a different pregnancy) was measured by quantitative PCR. mRNA expression levels were normalized to the house keeping gene Gapdh. […] After 96 h, cells were trypsinized and quantitated by flow cytometry. […] Relative cell number was measured by luminescence using Cell-Titer Glo reagent (Promega). […] After growth for 96 h, cells were trypsinized and quantitated by flow cytometry. […]

HSF1 [3] = assay: Effect of RHT on expression of HSF1 stromal signature genes in Hsf1+/+ versus Hsf1-/- MEFs; format: cell-based, mouse; settings: reduced in treated Hsf1+/+ MEFs but not in Hsf1-/- MEFs
Source text: A combination of experimental and bioinformatic approaches was used to define a set of HSF1-regulated genes of particular use for assessing the level of HSF1 activity in tumor-associated stromal cells for purposes of cancer classification, diagnosis, prognosis, treatment-specific prediction, and treatment selection. The pipeline started with the Group 1 and Group 4 gene lists described above. As described above, these 871 genes have increased expression in Hsf1+/+ versus Hsf1−/−MEFs. These 871 genes map to 562 genes in the Finak, G. et al. dataset discussed above (GEO (GSE9014)). […] Its structure is depicted below.
The 562 genes that mapped to genes in the Finak dataset were tested to determine the effect of RHT on their expression in Hsf1+/+MEFs versus […] MEFs. […] A filter was applied to these genes to identify those that were differentially expressed in tumors in the Finak dataset with poor versus good outcomes.

HSF1 [4] = settings: recent chemical screening effort; cited from earlier work

## c1ccc(-c2nn3c(c2-c2ccnc4cc(OCCN5CCOCC5)ccc24)CCC3)nc1 [LY2109761]
D2A1 cancer cells
  growth or survival of D2A1 cancer cells grown alone (relative cell number): did not affect; also recorded: does not directly inhibit
[1]
  growth of D2A1 cancer cells in co-culture with WT MEFs (relative number of cancer cells): significantly reduce their growth
[2]; LY2109761, MEFs pretreated 30 minutes, 72 h, daily supplementation, p=0.1
  growth of D2A1 cancer cells in co-culture with Hsf1 null MEFs (relative number of cancer cells): A smaller effect, that did not reach statistical significance

## COc1ccc([C@@]23Oc4cc(OC)cc(OC)c4[C@]2(O)[C@H](O)[C@H](C(=O)N(C)OC)[C@H]3c2ccccc2)cc1 [Rohinitib]
HSF1 [3]
  number of genes (of 562 tested) whose expression was suppressed in an HSF1-dependent fashion: 95
HSF1 [4]
  inhibition of HSF1 activity: potent inhibitor

## SDF1: purified recombinant protein (R&D systems, 460-SD-010)
[2]
  cancer cell growth (percentage of cancer cells) in co-culture with Hsf1 null MEFs on addition of recombinant proteins: Partial effects, that did not reach statistical significance

## TGFβ1: purified recombinant protein (R&D systems, 240-B-002)
[2]
  cancer cell growth (percentage of cancer cells) in co-culture with Hsf1 null MEFs on addition of recombinant proteins: Partial effects, that did not reach statistical significance
